Source: US9701556B1, “Compositions, methods, and systems for reducing contamination” (priority 2004, dated 2017)
Several values for one entry are separate records, joined by “and”; a condition that tells them apart may be missing. Equal entries are not always repeated.

Legend:
[1] = Treatment of sulfides in municipal wastewater with ferric chelants and hydrogen peroxide
Method: The pH was then raised to 7 using sodium hydroxide. Precipitation of iron oxides and/or hydroxides at this pH offered assurance of complete chelation of still soluble iron after 24 hours.
Total sulfides were tested for using Standard Methods 4500-S^2− D with a Hach Chemical Company (of Loveland, Colo.) DR 2000 Spectrophotometer and reagents from Hach specific for this particular test. To keep total sulfides within the range of the test, samples were diluted with distilled water prior to conducting the test as per Hach instructions.
Tests for total sulfide were conducted after 5, 15, and 30 minutes of contact time on each of the seven liter test jars.

heterotrophic bacteria = assay: Disinfection of wastewater with chelated iron compounds, total heterotrophic bacteria counts; type: cell-based; conditions: compared with hydrogen peroxide alone
Method: A 10 gallon sample of wastewater from the Massaponax Wastewater Plant was collected and allowed to sit undisturbed for thirty minutes. The clarified supernatant was then pored off of the top of the settled solids within the sample. The supernatant was then mixed and four samples were collected to determine untreated heterotrophic bacteria counts. […] were dissolved in distilled water at 0.4334M. Ferric chloride was added in amounts to achieve saturation of chelant sites on the respective chelants. […] Twenty individual liter samples of supernatant were then decanted from the well-mixed wastewater sample for testing. Four chelated iron products with peroxide were tested at two test concentrations and compared to samples receiving peroxide only and iron chelate only. […] Individual samples were dosed with the respective additives, mixed with a magnetic stir bar and allowed to react for 30 minutes. Samples were then decanted to sterile sample containers containing sodium thiosulfate to stop the oxidation process and preserve the sample. Samples were then placed in a refrigerator until all samples were finished. Samples were packaged in a standard cooler with ice packs and sent via overnite delivery to ProChem Labs in Lynchburg, Va. for analysis for total heterotrophic bacteria counts.

[2] = Comparative treatment of 2,4-D in water, GC analysis; conditions: after four hours
Method: A solution containing 1.5 L of distilled water, approximately 0.2 g of sodium bicarbonate, and a small amount of sodium salt of 2,4-D were prepared with magnetic stirring at room temperature in a 2.5 L flask. The dissolved sodium bicarbonate increased the alkalinity of the water somewhat, causing the water to mimic a natural water source. Two hundred fifty milliliters of this solution was distributed into three 500 mL Erlenmeyer flasks.
The flasks were then covered with parafilm and swirled to facilitate mixing of the solution.

[3] = Treatment of contaminated groundwater, BTEX SW 846 8260; conditions: 250 ml groundwater, 1 ml 35% hydrogen peroxide (with or without 1 ml Fe-GLC); untreated 34 ppb; ND = non detectible
[4] = as above; conditions: 250 ml groundwater, 1 ml 35% hydrogen peroxide (with or without 1 ml Fe-GLC); untreated 159 ppb; ND = non detectible
[5] = as above; conditions: 250 ml groundwater, 1 ml 35% hydrogen peroxide (with or without 1 ml Fe-GLC); untreated 171 ppb; ND = non detectible
[6] = as above; conditions: 250 ml groundwater, 1 ml 35% hydrogen peroxide (with or without 1 ml Fe-GLC); untreated 56 ppb; ND = non detectible
Fecal Coliform = assay: Disinfection of wastewater, fecal coliform count; type: cell-based; conditions: 50 microliters 35% H2O2 (with or without 50 microliters Fe-GLC), after twenty minutes, control 2200
Description: The samples were divided equally into three clean 500 milliliter sample containers from the single sample taken. The first sample served as a control and was set aside. […] Each sample was capped and shaken briefly to mix the contents. After twenty minutes, sub-samples were taken from each vessel and pored into fecal coliform sample containers for analysis at the Hampton Roads Sanitary District lab.

[7] = Treatment of contaminated groundwater, BTEX SW 846 8260; conditions: 250 ml groundwater, 1 ml 35% hydrogen peroxide (with or without 1 ml Fe-GLC); untreated 27 ppb

SMILES: OO [H2O2 Only, hydrogen peroxide]
- sulfide reduction after 15 minutes ([1]; 2.5:1.0 peroxide to sulfide, 105.8 ppm hydrogen peroxide, 20 ppm chelant where added, peroxide alone averaged): 52%
- sulfide treatment after 15 minutes ([1]; 37.8 ppm hydrogen peroxide, 12 ppm chelant where added): 42.9%
- Percentage of Sulfide Treated, Dose 3 38.7 ppm H2O2 Only ([1]; after 30 minutes, 1.5:1.0 ratio of peroxide to sulfide): 55.5 and 59.0 and 46.5 and 56.3 and 57.0 and 54.7
- Percentage of Sulfide Treated, Dose 3 105.8 ppm H2O2 Only ([1]; after 30 minutes, 2.5:1.0 ratio of peroxide to sulfide): 69.0 and 69.5 and 67.8 and 66.4 and 44.4 and 69.3 and 70.2
- disinfection effect, in words (heterotrophic bacteria): good disinfectant
- 2,4-D concentration ([2]; 250 mL, 200 microliters 50% hydrogen peroxide (with or without 200 microliters Fe-GLC), untreated 130 ppb): 230 ppb
- effect on 2,4-D, in words [2]: had no affect
- Ethylbenzene [3]: 13.0 ppb
- Xylenes [4]: 67.0 ppb
- Toluene [5]: 55.7 ppb
- Benzene [6]: 15.1 ppb
- Fecal Coliform (Fecal Coliform): 53 cfu/100 mL
- Fecal Coliform (Fecal Coliform; listed as hydrogen peroxide): Fifty three
- MtBE [7]: 15.7 ppb
